{"source": "patent US9730445B2", "about": "“Herbicidal compositions comprising 4-amino-3-chloro-5-fluoro-6-(4-chloro-2-fluoro-3-methoxyphenyl) pyridine-2-carboxylic acid or a derivative thereof and fungicides” (DOW AGROSCIENCES LLC, priority 2013, dated 2017)", "test_in_all_cases": "Postemergence foliar-applied weed control, direct-seeded rice (greenhouse)", "key": {"IPOHE": {"system": "IPOHE", "format": "in vivo, Ipomoea hederacea (L.) Jacq. (ivyleaf morningglory)", "conditions": "r10-12 ester 4.38/8.75/17.5 g ae/ha alone, r13 difenoconazole 200 g ai/ha alone, r14-16 ester 4.38/8.75/17.5 + 200"}, "ECHCO": {"system": "ECHCO", "format": "in vivo, Echinochloa colonum (L.) LINK (junglerice)", "excerpt": "(§1) Seeds or nutlets of the desired test plant species were planted in a soil matrix prepared by mixing aloam or sandy loam soil (e.g., 28.6 percent silt, 18.8 percent clay, and 52.6 percent sand, with a pH of about 5.8 and an organic matter content of about 1.8 percent) and calcareous grit in an 80 to 20 ratio. The soil matrix was contained in plastic pots with a volume of 1 quart and a surface area of 83.6 square centimeters (cm^2). When required to ensure good germination and healthy plants, a fungicide treatment and/or other chemical or physical treatment was applied. The plants were grown for 8-22 days in a greenhouse with an approximate 14 hour (h) photoperiod which was maintained at about 29° C. during the day and 26° C. during the night. Nutrients (Peters Excel® 15-5-15 5-Ca 2-Mg and iron chelate) were applied in the irrigation solution as needed and water was added on a regular basis. Supplemental lighting was provided with overhead metal halide 1000-Watt lamps as necessary. The plants were employed for testing when they reached the first through fourth true leaf stage.\n(§2) Treatments consisted of the acid or esters of 4-amino-3-chloro-5-fluoro-6-(4-chloro-2-fluoro-3-methoxy-phenyl)pyridine-2-carboxylic acid (Compound A), each formulated as an SC (suspension concentrate), and various fungicidal components alone and in combination. Forms of compound A were applied on an acid equivalent basis.\n(§3) Treatment requirements were calculated based upon the rates being tested, the concentration of active ingredient or acid equivalent in the formulation and a 12 milliliter (mL) application volume at a rate of 187 liters per hectare (L/ha).\n(§4) For treatments comprised of formulated compounds, measured amounts of compounds were placed individually in 25 mL glass vials and diluted in a volume of 1.25% volume per volume (v/v) Agri-Dex® crop oil concentrate to obtain 12× stock solutions. […] Application solutions were prepared by adding an appropriate amount of each stock solution (e.g., 1 mL) and diluted to the appropriate final concentrations with the addition of […] of an aqueous mixture of 1.25% (v/v) crop oil concentrate so that the final spray solutions contained 1.25+/−0.05% (v/v) crop oil concentrate.\n(§5) For treatments comprised of technical compounds, weighed amounts can be placed individually in 25 mL glass vials and dissolved in a volume of 97:3 volume per volume (v/v) acetone/dimethyl sulfoxide (DMSO) to obtain 12× stock solutions. […] When technical materials are used, the concentrated stock solutions can be added to the spray solutions so that the final acetone and DMSO concentrations of the application solutions are 16.2% and 0.5%, respectively.\n(§6) As required, additional water and/or 97:3 v/v acetone/DMSO was added to individual application solutions so that the final acetone and DMSO concentrations of the application solutions being compared were 8.1% and 0.25%, respectively\n(§7) All stock solutions and applications solutions were visually inspected for compound compatibility prior to application. Spray solutions were applied to the plant material with an overhead Mandel track sprayer equipped with 8002E nozzles calibrated to deliver 187 L/ha over an application area of 0.503 square meters (m^2) at a spray height of 18 to 20 inches (46 to 50 cm) above average plant canopy height. Control plants were sprayed in the same manner with the solvent blank.\n(§8) The treated plants and control plants were placed in a greenhouse as described above and watered by sub-irrigation to prevent wash-off of the test compounds. After approximately 3 weeks, the condition of the test plants as compared with that of the untreated plants was determined visually and scored on a scale of 0 to 100 percent where 0 corresponds to no injury or growth inhibition and 100 corresponds to complete kill. […]"}, "BRAPP": {"system": "BRAPP", "format": "in vivo", "excerpt": "as §1, §2, §3, §4, §5, §6, §7, §8"}, "LEFCH": {"system": "LEFCH", "format": "in vivo, Leptochloa chinensis (L.) Nees (Chinese sprangletop)"}, "[1]": {"conditions": "r38-39 ester 8/16 g ae/ha alone, r40 isotianil 380 g ai/ha alone, r41-42 ester 8/16 + 380"}}, "note": "Values joined by “and” are separate entries in the source; they are usually repeats but may differ in a detail not shown here. Equal values may be shown once."}
{"smiles": "COc1c(Cl)ccc(-c2nc(C(=O)OCc3ccccc3)c(Cl)c(N)c2F)c1F", "note": "[Compound A Benzyl Ester]", "values": [{"measurement": "Visual Weed Control (%) - 21 DAA IPOHE Obs", "setting": "IPOHE", "result": "10% and 20%"}, {"measurement": "Visual Weed Control (%) - 19 DAA ECHCO Obs", "setting": "ECHCO; r9-11 ester 8/16/32 g ae/ha alone, r12-13 carbendazim 125/250 g ai/ha alone, r14-19 ester 8/16/32 at each of 125, 250", "result": "90% and 95% and 65%"}, {"measurement": "Visual Weed Control (%) - 19 DAA ECHCO Obs", "setting": "ECHCO; r9-11 ester 8/16/32 g ae/ha alone, r12-13 flutolanil 280/560 g ai/ha alone, r14-19 ester 8/16/32 at each of 280, 560", "result": "90% and 95% and 65%"}, {"measurement": "Visual Weed Control (%)—21 DAA ECHCO Obs", "setting": "ECHCO; r9-11 ester 8/16/32 g ae/ha alone, r12-14 hexaconazole 25/50/100 g ai/ha alone, r15-23 ester 8/16/32 at each of 25, 50, 100", "result": "65% and 85% and 50%"}, {"measurement": "Visual Weed Control (%)—21 DAA ECHCO Obs", "setting": "ECHCO; [1]", "result": "50% and 65%"}, {"measurement": "Visual Weed Control (%)—20 DAA BRAPP Obs", "setting": "BRAPP; 20 DAA, r9-11 ester 8/16/32 g ae/ha alone, r12 isotianil 200 g ai/ha alone, r13-15 ester 8/16/32 + 200", "result": "85% and 90% and 60%"}, {"measurement": "Visual Weed Control (%)—21 DAA BRAPP Obs", "setting": "BRAPP; r29-30 ester 8/16 g ae/ha alone, r31-33 hexaconazole 25/50/100 g ai/ha alone, r34-39 ester 8/16 at each of 25, 50, 100", "result": "55% and 60%"}, {"measurement": "Visual Weed Control (%)—21 DAA BRAPP Obs", "setting": "BRAPP; [1]", "result": "55% and 60%"}, {"measurement": "Visual Weed Control (%) - 19 DAA LEFCH Obs", "setting": "LEFCH; 19 DAA, r9-11 ester 8/16/32 g ae/ha alone, r12-13 flutolanil 280/560 g ai/ha alone, r14-19 ester 8/16/32 at each of 280, 560", "result": "45% and 50%"}, {"measurement": "Visual Weed Control (%)—21 DAA LEFCH Obs", "setting": "LEFCH; r9-11 ester 8/16/32 g ae/ha alone, r12-14 kasugamycin 17.5/35/70 g ai/ha alone, r15-23 ester 8/16/32 at each of 17.5, 35, 70", "result": "40% and 65%"}, {"measurement": "Visual Weed Control (%) - 21 DAA LEFCH Obs", "setting": "LEFCH; r10-11 ester 16/32 g ae/ha alone, r12 mancozeb 840 g ai/ha alone, r13-14 ester 16/32 + 840", "result": "15% and 25%"}, {"measurement": "Visual Weed Control (%) - 21 DAA LEFCH Obs", "setting": "LEFCH; r10-12 ester 8/16/32 g ae/ha alone, r13-14 isoprothiolane 266/533 g ai/ha alone, r15-20 ester 8/16/32 at each of 266, 533", "result": "50% and 60% and 70%"}, {"measurement": "Visual Weed Control (%)—21 DAA LEFCH Obs", "setting": "LEFCH; [1]", "result": "25% and 40%"}, {"measurement": "Visual Weed Control (%) - 21 DAA LEFCH Obs", "setting": "LEFCH; r42-43 ester 16/32 g ae/ha alone, r44-46 difenoconazole 50/100/200 g ai/ha alone, r47-52 ester 16/32 at each of 50, 100, 200", "result": "25% and 43%"}]}
